Source: ChEMBL document CHEMBL3784917, “Recent Progress in Histone Demethylase Inhibitors” (J Med Chem, 2016)

Key:
[1] = target: T1, Lysine-specific demethylase 4A (Homo sapiens, UniProt O75164)
T1 sequence (O75164 whole entry): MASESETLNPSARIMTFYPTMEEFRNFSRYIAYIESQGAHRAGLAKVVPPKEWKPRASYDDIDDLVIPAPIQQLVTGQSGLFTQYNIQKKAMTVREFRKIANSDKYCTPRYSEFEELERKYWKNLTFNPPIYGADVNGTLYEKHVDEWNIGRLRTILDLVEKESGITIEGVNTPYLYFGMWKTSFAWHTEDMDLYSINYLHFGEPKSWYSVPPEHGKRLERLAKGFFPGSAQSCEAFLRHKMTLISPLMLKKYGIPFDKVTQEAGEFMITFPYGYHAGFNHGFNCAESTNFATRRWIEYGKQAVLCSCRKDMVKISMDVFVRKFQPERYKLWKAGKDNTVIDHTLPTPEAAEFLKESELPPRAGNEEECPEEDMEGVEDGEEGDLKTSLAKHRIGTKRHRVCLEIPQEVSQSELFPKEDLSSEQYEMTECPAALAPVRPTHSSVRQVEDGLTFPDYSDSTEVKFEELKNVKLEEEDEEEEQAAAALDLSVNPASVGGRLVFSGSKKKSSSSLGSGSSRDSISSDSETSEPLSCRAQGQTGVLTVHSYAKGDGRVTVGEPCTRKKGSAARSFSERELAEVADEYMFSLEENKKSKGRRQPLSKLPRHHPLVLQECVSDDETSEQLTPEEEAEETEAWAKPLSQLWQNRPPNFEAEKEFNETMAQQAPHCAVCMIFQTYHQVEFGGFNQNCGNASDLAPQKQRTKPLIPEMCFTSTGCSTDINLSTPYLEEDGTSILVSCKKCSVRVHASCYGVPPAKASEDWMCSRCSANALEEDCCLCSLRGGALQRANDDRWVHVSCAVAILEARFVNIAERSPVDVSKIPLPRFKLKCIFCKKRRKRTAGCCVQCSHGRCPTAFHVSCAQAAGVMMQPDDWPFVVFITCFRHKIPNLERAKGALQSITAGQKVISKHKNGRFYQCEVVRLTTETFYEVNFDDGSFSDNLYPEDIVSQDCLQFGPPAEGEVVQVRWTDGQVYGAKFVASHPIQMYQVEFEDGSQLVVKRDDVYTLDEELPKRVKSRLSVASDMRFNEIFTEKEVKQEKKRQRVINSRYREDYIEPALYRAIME

[2] = target: T2, Lysine-specific demethylase 5A (Homo sapiens, UniProt P29375); assay: biochemical
[3] = target: T3, Lysine-specific demethylase 5B (Homo sapiens, UniProt Q9UGL1); assay: biochemical
[4] = target: T4, Lysine-specific demethylase 4C (Homo sapiens, UniProt Q9H3R0); assay: biochemical
T4 sequence (Q9H3R0 whole entry): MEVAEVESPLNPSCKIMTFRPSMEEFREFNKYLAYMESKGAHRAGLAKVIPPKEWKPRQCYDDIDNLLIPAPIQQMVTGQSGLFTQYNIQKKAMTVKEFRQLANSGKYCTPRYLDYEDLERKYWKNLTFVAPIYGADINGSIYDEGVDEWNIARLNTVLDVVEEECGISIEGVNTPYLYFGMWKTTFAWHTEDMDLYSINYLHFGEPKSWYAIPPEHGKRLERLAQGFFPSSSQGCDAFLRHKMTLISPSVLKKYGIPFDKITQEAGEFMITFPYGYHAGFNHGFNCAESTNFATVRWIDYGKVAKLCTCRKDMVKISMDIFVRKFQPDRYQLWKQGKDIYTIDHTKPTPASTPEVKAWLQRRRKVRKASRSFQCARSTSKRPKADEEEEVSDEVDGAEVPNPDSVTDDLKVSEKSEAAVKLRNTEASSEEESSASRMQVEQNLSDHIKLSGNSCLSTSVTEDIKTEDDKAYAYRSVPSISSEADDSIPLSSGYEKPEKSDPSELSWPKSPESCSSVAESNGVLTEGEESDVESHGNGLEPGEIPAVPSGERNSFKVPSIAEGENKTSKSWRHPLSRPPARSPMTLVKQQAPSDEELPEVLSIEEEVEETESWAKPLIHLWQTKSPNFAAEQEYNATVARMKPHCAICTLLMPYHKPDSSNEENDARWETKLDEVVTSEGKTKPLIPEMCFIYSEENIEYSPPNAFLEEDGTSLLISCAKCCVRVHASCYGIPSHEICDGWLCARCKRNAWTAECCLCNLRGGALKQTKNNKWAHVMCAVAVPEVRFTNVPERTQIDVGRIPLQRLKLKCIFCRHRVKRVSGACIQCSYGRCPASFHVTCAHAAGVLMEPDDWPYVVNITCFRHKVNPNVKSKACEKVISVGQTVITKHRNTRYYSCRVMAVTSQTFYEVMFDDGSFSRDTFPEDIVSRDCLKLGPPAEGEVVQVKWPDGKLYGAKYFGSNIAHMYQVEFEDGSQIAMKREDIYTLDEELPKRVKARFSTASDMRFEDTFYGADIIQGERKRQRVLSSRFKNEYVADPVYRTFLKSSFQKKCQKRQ

[5] = target: Lysine-specific histone demethylase 1A (Homo sapiens, UniProt O60341)
[6] = target: T2, Lysine-specific demethylase 5A
[7] = target: T3, Lysine-specific demethylase 5B
[8] = target: T5, Lysine-specific demethylase 2B (Homo sapiens, UniProt Q8NHM5); assay: biochemical
T5 sequence (Q8NHM5 whole entry): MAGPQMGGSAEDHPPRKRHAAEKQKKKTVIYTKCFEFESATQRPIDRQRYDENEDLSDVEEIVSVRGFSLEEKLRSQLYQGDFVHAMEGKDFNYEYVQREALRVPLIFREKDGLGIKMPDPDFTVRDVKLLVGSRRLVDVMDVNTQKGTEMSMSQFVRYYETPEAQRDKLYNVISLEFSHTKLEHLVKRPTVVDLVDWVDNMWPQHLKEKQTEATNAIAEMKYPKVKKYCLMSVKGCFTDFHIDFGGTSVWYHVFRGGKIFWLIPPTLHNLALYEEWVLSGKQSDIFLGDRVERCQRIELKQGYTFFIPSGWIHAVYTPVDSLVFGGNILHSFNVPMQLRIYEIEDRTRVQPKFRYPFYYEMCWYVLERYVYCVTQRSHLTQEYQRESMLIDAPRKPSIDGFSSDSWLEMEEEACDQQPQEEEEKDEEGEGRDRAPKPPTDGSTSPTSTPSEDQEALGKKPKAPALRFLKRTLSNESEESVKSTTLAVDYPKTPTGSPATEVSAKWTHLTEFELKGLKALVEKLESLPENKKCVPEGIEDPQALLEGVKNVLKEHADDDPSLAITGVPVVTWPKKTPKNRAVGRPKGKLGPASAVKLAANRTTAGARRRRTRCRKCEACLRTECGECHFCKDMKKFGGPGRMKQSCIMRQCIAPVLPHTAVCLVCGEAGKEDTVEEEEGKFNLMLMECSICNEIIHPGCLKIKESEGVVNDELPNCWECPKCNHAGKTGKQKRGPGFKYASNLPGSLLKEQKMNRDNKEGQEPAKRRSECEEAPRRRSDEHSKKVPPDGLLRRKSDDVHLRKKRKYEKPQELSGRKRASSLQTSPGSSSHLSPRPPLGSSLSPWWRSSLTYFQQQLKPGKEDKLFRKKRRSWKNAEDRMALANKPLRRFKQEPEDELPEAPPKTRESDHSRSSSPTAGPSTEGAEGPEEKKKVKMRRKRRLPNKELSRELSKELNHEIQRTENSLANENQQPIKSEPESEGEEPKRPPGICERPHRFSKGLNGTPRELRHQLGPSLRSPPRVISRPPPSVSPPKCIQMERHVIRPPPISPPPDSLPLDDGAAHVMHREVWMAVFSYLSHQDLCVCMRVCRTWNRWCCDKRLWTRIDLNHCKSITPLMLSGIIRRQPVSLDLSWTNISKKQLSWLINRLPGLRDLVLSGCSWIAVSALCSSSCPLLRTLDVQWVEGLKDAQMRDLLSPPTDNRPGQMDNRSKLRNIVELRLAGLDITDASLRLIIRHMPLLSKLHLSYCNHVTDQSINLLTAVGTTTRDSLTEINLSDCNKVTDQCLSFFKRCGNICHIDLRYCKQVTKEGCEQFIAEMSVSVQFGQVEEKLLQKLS

[9] = cells; settings: Homo sapiens, KYSE-150, 168 h
[10] = target: T4, Lysine-specific demethylase 4C
[11] = target: T3, Lysine-specific demethylase 5B; remark: listed apart in the source
[12] = target: Lysine-specific demethylase 6A (Homo sapiens, UniProt O15550)
[13] = target: T5, Lysine-specific demethylase 2B; assay: biochemical; remark: listed apart in the source

Sequence of Lysine-specific demethylase 6A (O15550 whole entry): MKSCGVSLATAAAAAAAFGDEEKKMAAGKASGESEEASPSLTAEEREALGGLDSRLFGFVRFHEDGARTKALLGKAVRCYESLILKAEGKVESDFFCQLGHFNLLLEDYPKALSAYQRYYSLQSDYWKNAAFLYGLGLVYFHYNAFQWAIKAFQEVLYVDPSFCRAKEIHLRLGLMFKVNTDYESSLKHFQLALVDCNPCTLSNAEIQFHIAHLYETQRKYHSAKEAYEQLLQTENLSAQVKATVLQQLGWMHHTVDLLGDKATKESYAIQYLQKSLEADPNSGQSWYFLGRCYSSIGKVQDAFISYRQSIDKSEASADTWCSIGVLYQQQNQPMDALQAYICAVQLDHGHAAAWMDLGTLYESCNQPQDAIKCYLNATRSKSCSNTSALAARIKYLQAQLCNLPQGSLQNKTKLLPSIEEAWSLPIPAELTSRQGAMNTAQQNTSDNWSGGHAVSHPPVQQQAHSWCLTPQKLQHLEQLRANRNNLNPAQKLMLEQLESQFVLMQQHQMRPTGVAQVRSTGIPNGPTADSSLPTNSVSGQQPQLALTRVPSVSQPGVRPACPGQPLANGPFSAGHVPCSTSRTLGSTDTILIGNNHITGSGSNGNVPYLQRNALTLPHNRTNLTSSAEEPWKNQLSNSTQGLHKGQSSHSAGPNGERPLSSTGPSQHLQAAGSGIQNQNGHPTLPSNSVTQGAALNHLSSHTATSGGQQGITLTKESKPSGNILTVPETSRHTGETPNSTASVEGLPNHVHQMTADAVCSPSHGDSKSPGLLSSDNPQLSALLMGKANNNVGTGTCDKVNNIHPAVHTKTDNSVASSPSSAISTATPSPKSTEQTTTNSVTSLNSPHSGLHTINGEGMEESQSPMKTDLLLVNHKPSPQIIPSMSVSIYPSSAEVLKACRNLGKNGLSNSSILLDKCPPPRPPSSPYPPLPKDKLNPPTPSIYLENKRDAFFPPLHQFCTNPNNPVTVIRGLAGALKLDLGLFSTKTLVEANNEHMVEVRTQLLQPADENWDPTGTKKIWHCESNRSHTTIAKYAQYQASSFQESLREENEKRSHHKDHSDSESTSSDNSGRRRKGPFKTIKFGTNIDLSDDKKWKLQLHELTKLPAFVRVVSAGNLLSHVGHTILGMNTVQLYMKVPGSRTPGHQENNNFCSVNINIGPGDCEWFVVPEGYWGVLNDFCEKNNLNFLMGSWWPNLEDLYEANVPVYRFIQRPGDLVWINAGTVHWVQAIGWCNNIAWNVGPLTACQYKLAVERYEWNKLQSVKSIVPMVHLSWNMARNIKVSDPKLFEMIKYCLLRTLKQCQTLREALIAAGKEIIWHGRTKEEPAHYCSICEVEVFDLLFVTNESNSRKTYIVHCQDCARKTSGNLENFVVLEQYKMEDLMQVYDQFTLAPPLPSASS
T2 sequence (P29375 whole entry): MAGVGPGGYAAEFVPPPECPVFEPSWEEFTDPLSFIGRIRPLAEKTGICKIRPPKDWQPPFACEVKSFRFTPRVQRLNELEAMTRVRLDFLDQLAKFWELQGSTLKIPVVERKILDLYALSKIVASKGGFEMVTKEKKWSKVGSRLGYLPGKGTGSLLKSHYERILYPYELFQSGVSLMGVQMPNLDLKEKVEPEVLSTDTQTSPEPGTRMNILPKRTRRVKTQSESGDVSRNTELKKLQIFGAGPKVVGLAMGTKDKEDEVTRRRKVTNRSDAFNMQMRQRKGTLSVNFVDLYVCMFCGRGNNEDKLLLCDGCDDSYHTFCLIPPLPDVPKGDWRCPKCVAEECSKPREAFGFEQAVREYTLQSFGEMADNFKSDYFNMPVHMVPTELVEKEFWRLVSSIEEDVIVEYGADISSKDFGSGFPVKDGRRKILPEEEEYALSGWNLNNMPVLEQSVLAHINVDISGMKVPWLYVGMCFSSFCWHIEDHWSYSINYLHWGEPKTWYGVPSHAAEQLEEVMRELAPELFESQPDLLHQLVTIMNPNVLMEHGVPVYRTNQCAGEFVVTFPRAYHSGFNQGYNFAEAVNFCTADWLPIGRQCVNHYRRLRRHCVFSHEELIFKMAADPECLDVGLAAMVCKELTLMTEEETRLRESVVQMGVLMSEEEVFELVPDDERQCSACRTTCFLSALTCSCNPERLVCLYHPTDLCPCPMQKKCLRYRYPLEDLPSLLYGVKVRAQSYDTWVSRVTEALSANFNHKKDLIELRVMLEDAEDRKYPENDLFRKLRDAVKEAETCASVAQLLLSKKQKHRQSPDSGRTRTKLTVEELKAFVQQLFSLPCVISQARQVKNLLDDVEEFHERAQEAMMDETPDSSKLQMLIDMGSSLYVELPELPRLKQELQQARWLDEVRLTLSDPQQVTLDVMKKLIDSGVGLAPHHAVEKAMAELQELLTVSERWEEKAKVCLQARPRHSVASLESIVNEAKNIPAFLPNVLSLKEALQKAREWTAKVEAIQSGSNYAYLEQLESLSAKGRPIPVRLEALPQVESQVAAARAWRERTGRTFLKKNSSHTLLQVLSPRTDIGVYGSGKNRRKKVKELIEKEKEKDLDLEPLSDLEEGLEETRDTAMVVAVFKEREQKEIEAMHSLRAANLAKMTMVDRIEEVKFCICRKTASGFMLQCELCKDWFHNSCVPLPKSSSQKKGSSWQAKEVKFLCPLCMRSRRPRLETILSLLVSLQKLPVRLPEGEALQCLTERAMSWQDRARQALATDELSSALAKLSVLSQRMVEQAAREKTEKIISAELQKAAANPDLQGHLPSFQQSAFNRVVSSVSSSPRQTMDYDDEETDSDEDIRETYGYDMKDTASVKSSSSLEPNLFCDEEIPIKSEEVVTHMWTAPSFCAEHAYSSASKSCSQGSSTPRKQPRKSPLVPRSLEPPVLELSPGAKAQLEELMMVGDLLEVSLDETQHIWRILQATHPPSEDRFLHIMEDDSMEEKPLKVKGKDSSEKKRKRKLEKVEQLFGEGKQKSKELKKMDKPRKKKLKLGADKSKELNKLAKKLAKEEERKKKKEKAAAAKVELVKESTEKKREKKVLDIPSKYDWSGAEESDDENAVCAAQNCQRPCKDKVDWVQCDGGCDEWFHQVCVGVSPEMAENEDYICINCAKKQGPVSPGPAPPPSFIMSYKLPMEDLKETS
T3 sequence (Q9UGL1 whole entry): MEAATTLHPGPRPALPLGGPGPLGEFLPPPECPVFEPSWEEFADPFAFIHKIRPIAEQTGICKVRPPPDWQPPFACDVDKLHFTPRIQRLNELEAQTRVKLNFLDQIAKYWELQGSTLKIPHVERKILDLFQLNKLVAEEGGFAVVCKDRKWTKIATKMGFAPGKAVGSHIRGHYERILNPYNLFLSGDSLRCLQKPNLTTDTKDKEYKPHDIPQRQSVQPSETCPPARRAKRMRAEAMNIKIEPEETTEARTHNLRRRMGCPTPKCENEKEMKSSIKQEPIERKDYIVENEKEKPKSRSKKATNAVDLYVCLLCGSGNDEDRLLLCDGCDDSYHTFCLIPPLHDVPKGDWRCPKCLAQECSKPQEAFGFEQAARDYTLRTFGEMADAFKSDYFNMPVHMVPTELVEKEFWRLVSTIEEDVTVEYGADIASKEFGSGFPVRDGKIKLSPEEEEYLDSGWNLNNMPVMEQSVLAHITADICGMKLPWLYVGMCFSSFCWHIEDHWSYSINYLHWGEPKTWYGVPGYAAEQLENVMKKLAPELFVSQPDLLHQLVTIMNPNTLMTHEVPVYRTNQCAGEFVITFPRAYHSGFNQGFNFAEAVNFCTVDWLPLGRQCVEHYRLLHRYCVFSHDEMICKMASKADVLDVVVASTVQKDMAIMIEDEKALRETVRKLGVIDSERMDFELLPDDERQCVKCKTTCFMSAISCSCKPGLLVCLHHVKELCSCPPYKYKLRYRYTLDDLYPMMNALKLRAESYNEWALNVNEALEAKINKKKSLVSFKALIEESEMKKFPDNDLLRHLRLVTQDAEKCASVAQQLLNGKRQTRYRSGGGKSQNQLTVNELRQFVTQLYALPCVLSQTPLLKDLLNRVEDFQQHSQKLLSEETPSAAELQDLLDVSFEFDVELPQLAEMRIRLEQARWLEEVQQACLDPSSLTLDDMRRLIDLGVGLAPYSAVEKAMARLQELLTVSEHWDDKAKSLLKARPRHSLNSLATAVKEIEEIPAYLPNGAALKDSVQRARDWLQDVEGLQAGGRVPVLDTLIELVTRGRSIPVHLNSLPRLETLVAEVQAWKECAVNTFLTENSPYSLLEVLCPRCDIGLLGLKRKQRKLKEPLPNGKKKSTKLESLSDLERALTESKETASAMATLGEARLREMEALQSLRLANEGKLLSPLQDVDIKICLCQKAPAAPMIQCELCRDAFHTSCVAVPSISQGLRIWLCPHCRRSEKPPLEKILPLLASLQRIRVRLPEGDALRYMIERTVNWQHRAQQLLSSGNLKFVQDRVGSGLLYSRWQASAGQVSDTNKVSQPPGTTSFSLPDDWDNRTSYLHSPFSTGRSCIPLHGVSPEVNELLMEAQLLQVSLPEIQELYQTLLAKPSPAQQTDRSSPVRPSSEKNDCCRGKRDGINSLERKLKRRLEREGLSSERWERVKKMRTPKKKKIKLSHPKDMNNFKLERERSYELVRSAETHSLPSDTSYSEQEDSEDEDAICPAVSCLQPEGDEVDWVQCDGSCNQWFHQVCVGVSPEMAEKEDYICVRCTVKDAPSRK

| SMILES | IC50 [2] [nM] | IC50 [3] [nM] | IC50 [4] [nM] | IC50 [6] [nM] | IC50 [7] [nM] | other results |
| --- | --- | --- | --- | --- | --- | --- |
| O=C(O)c1ccnc2cc(OCc3ccc(Cl)c(OCC4CC4)c3)[nH]c12 | 100 | < 100 | < 100 | – | – | IC50 [1]: 1000 nM |
| COC1(CN[C@@H]2C[C@H]2c2ccccc2)CCN(S(=O)(=O)c2ccn(C)n2)CC1 | – | – | – | – | – | IC50 [5]: < 100 nM |
| O=C(O)CC1(N2CCC(N[C@@H]3C[C@H]3c3ccccc3)CC2)CN(CCC(F)(F)F)C1 | – | – | – | – | – | IC50 [5]: < 100 nM |
| COC(=O)c1ccnc2cc(OCc3ccc(Cl)c(OCC4CC4)c3)[nH]c12 | – | – | – | – | – | IC50 [9]: < 100 nM |
| COC(=O)c1ccnc(-n2nccc2OCc2ccc(Cl)cc2)c1 | – | – | – | 100 | 100 | – |
| Cn1nc(Nc2cnccc2C(=O)O)c2cccnc21 | < 100 | < 100 | 100 | 100 | 100 | – |
| Nc1ccnc(N2CCC(N[C@@H]3C[C@H]3c3ccccc3)CC2)n1 | – | – | – | – | – | IC50 [5]: < 100 nM |
| CNC(=O)c1ccnc2cc(OCc3ccc(Cl)c(OC(F)(F)F)c3)[nH]c12 | – | – | – | – | – | IC50 [9]: < 100 nM |
| COc1ccc(-c2c(-c3cc(C(=O)O)ccn3)ncn2C)cc1 | 100 | 100 | 1000 | 1000 | 1000 | IC50 [8]: 100 nM |
| O=C(O)c1ccnc(CNCc2nccn2C/C=C/c2ccccc2)c1 | – | – | – | – | – | IC50 [10]: > 2500 nM; IC50 [11]: < 250 nM; IC50 [12]: > 2500 nM |
| CCN1CCC[C@H](CNCc2cc(C(=O)O)ccn2)C1=O | – | – | – | – | – | IC50 [11]: < 250 nM; IC50 [12]: > 2500 nM; IC50 [13]: < 250 nM |
| Cn1cnc(-c2cc(-c3nn[nH]n3)ccn2)c1 | 100 | 100 | > 10000 | > 10000 | > 10000 | IC50 [1]: > 10000 nM; IC50 [8]: < 100 nM |
| COC(=O)c1ccnc2cc(OCc3ccc(Cl)c(OC)c3)[nH]c12 | – | – | – | – | – | IC50 [9]: < 100 nM |
| CC(C)Cn1nc(Nc2cnccc2C(=O)NC#N)c2cc(F)ccc21 | < 100 | < 100 | 1000 | – | – | – |
| O=C(O)c1ccnc2cc(OCc3ccc(Cl)c(OC(F)(F)F)c3)[nH]c12 | 100 | < 100 | < 100 | – | – | IC50 [1]: 100 nM |
| CN(C)CC(=O)N1CCC(CN[C@@H]2C[C@H]2c2ccccc2)(Cc2cccc(C#N)c2)CC1 | – | – | – | – | – | IC50 [5]: < 100 nM |
| COC(=O)c1ccnc2cc(OCc3ccc(Cl)c(OC(F)(F)F)c3)[nH]c12 | – | – | – | – | – | IC50 [9]: < 100 nM |
| O=C(O)c1cnnc(CNCC(=O)N2CCCCC2)c1 | – | – | – | – | – | IC50 [10]: < 250 nM; IC50 [11]: < 250 nM; IC50 [12]: > 2500 nM |
| COc1cc(COc2cc3nccc(C(=O)O)c3[nH]2)ccc1Cl | 1000 | 1000 | < 100 | – | – | IC50 [1]: 100 nM |

Continued, in another order:

| IC50 [2] [nM] | IC50 [3] [nM] | IC50 [4] [nM] | IC50 [6] [nM] | IC50 [7] [nM] | SMILES | other results |
| --- | --- | --- | --- | --- | --- | --- |
| < 100 | < 100 | < 100 | > 10000 | > 10000 | Cn1cnc(-c2cc(C(=O)O)ccn2)c1 | IC50 [1]: < 100 nM; IC50 [8]: < 100 nM |
| < 100 | < 100 | 100 | < 100 | < 100 | Cc1cc(Cl)ccc1COc1ccnn1-c1cc(C(=O)O)ccn1 | IC50 [8]: 100 nM |
| < 100 | < 100 | 100 | 1000 | 1000 | Cn1cnc(-c2cc(C(=O)O)ccn2)c1-c1ccc(OCC2CC2)cc1 | IC50 [8]: 100 nM |
| < 100 | < 100 | 100 | 100 | 100 | O=C(O)c1ccncc1Nc1nn(C2CCCC2)c2ccc(F)cc12 | – |
| < 100 | < 100 | 1000 | – | – | O=C(O)c1ccnc(-n2ncc(CCO)c2OCc2ccc(F)cc2)c1 | – |
| 100 | 100 | < 100 | – | – | O=C(O)c1ccncc1NCC12CC3CC(CC(C3)C1)C2 | IC50 [9]: > 10000 nM |
| < 100 | < 100 | < 100 | 100 | 100 | O=C(O)c1ccnc(-n2nccc2OCc2ccc(Cl)cc2)c1 | – |
